The values that follow come from patent US20250122183A1 (Pfizer Inc., priority 2023, published 2025).

The target of test [1] is KAT6A Full length enzyme (Homo sapiens (Human), UniProt Q92794). The test can be described thus: KAT6A assay (SAMDI-MS acetylation of H3 1-21 peptide). It is filed as biochemical. To be noted: replicate number in parentheses.
Test [2] concerns the target KAT7+JADE1+EAF6+ING5 4 protein complex (Homo sapiens (Human), UniProt O95251). The test can be described thus: KAT7 JADE1 assay (SAMDI-MS acetylation of H3 1-21 peptide). To be noted: replicate number in parentheses. It counts as biochemical.
Setting [3] is: read-out: KAT6A Ki (nM) (replicate).
[4] abbreviates: read-out: KAT7 JADE1 Ki (nM) (replicate).

A word on the Ki: it is the equilibrium dissociation constant of an inhibitor or competing ligand from its target.

Like-named read-outs stand apart in the source and are kept apart here.

Sequence of KAT6A Full length enzyme (Q92794 other isoform, or with tags, fused parts or gaps): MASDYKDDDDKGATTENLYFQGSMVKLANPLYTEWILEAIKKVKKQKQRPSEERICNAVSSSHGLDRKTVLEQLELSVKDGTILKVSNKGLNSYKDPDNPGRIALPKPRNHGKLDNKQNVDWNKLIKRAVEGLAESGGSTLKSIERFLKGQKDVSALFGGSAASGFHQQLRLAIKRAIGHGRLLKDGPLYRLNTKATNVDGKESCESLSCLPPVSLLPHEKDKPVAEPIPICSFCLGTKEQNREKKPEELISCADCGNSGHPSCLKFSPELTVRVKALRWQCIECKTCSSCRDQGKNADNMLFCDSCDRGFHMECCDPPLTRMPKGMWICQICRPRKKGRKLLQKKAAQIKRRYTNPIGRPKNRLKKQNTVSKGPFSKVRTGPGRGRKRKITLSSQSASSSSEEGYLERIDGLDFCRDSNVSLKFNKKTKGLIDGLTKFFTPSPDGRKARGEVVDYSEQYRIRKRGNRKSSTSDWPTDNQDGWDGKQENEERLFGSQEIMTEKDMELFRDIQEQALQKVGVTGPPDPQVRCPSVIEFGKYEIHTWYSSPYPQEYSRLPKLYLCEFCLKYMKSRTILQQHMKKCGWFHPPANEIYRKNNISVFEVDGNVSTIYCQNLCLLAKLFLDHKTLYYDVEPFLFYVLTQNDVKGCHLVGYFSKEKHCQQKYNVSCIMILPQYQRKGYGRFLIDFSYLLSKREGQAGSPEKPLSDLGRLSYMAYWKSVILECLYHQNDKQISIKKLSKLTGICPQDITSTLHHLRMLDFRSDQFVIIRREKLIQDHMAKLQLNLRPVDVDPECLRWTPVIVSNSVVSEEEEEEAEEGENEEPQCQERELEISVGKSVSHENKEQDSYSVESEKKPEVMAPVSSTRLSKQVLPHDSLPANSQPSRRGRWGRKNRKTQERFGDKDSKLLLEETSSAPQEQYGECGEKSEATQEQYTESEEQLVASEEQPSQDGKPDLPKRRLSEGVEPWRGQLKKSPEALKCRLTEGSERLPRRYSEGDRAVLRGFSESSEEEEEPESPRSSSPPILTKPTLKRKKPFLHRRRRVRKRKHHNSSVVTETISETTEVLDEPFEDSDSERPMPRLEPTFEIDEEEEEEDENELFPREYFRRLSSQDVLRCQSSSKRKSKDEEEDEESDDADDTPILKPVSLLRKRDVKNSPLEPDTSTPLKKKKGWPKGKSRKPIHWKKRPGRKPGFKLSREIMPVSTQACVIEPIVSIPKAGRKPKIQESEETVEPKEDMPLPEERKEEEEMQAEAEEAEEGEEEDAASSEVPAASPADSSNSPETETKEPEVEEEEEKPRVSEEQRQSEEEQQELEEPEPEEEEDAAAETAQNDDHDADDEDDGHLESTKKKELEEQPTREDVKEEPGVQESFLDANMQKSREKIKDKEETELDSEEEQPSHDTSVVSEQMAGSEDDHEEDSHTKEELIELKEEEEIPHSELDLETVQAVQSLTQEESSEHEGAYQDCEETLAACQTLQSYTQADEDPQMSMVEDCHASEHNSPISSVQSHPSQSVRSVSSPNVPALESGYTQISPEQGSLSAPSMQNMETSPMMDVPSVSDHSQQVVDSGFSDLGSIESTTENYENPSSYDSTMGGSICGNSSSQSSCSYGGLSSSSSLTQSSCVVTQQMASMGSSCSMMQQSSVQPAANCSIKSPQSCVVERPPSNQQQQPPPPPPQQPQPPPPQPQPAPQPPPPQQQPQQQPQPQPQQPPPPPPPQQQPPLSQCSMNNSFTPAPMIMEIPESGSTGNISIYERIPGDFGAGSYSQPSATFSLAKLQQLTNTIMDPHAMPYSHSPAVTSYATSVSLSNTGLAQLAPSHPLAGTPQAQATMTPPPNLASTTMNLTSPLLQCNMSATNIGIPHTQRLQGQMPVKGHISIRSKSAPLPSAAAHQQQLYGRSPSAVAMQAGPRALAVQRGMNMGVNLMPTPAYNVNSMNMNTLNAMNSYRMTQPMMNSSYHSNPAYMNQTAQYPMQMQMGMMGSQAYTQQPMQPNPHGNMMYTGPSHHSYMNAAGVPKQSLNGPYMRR

Take `CCc1cc(Nc2cc3onc(NS(=O)(=O)c4c(OC)cc(-c5cn(C)cn5)cc4OC)c3cc2OC)[nH]n1` [Example 238, N-{6-[(3-ethyl-1H-pyrazol-5-yl)amino]-5-methoxy-1,2-benzoxazol-3-yl}-2,6-dimethoxy-4-(1-methyl-1H-imidazol-4-yl)benzene-1-sulfonamide]: the Ki worked out at 1.2 nM in test [1] (Morrison equation fit, read-out: KAT6A Ki (nM) (replicate number)) and 12.7 nM in test [2] (Morrison equation fit, read-out: KAT7 JADE1 Ki (nM) (replicate number)).
Regarding `COc1cc2c(NS(=O)(=O)c3c(OC)cc(N4CC(F)C4)cc3OC)noc2cc1Nc1cc(C2CC2)n[nH]1` [Example 252, N-{6-[(3-cyclopropyl-1H-pyrazol-5-yl)amino]-5-methoxy-1,2-benzoxazol-3-yl}-4-(3-fluoroazetidin-1-yl)-2,6-dimethoxybenzene-1-sulfonamide], the Ki in test [1] (setting [3]) worked out at 0.8 nM; in test [2] (setting [4]) it was 5.7 nM.
For the compound `COc1cc2c(NS(=O)(=O)c3c(OC)cc(N4CC(OC)C4)cc3OC)noc2cc1Nc1cc(C2CC2)n[nH]1` [Example 253, N-{6-[(3-cyclopropyl-1H-pyrazol-5-yl)amino]-5-methoxy-1,2-benzoxazol-3-yl}-2,6-dimethoxy-4-(3-methoxyazetidin-1-yl)benzene-1-sulfonamide], the values for the Ki in test [1] (setting [3]) and in test [2] (setting [4]) were 0.6 nM and 5 nM, respectively.
With `COc1cc2c(NS(=O)(=O)c3c(OC)cc(N4C(=O)CCC45CCC5)cc3OC)noc2cc1Nc1cc(C2CC2)n[nH]1` [Example 255, N-{6-[(3-cyclopropyl-1 H-pyrazol-5-yl)amino]-5-methoxy-1,2-benzoxazol-3-yl}-2,6-dimethoxy-4-(6-oxo-5-azaspiro[3.4]octan-5-yl)benzene-1-sulfonamide], the figures for the Ki in test [1] (setting [3]) and in test [2] (setting [4]) were 0.8 nM and 4.2 nM, respectively.
`COc1cc2c(NS(=O)(=O)c3c(OC)cc(C(=O)N4CCC(F)(F)C4)cc3OC)noc2cc1Nc1cc(C2CC2)n[nH]1` [Example 257, N-{6-[(3-cyclopropyl-1H-pyrazol-5-yl)amino]-5-methoxy-1,2-benzoxazol-3-yl}-4-(3,3-difluoropyrrolidine-1-carbonyl)-2,6-dimethoxybenzene-1-sulfonamide]: the figures for the Ki in test [1] (setting [3]) and in test [2] (setting [4]) were 1.6 nM and 9.5 nM, respectively.
Take `COc1cc2c(NS(=O)(=O)c3c(OC)cc(C(=O)N4CC[C@@H](F)C4)cc3OC)noc2cc1Nc1cc(C2CC2)n[nH]1` [Example 258, N-{6-[(3-cyclopropyl-1H-pyrazol-5-yl)amino]-5-methoxy-1,2-benzoxazol-3-yl}-4-[(3R)-3-fluoropyrrolidine-1-carbonyl]-2,6-dimethoxybenzene-1-sulfonamide]: the inhibition constant Ki in test [1] (setting [3]) was found to be 1 nM; in test [2] (setting [4]), 5.9 nM.
In the case of `COc1cc2c(NS(=O)(=O)c3c(OC)cc(C(=O)N4CCC[C@@H](F)C4)cc3OC)noc2cc1Nc1cc(C2CC2)n[nH]1` [Example 260, N-{6-[(3-cyclopropyl-1H-pyrazol-5-yl)amino]-5-methoxy-1,2-benzoxazol-3-yl}-4-[(3R)-3-fluoropiperidine-1-carbonyl]-2,6-dimethoxybenzene-1-sulfonamide], the figures for the Ki in test [1] (setting [3]) and in test [2] (setting [4]) were 1 nM and 6.7 nM, respectively.
Turning to `COc1cc2c(NS(=O)(=O)c3c(OC)cc(C(=O)N4CCC[C@H](F)C4)cc3OC)noc2cc1Nc1cc(C2CC2)n[nH]1` [Example 261, N-{6-[(3-cyclopropyl-1H-pyrazol-5-yl)amino]-5-methoxy-1,2-benzoxazol-3-yl}-4-[(3S)-3-fluoropiperidine-1-carbonyl]-2,6-dimethoxybenzene-1-sulfonamide], the Ki in test [1] (setting [3]) was 1.1 nM; in test [2] (setting [4]) it was 6.7 nM.
The corresponding values for `COc1cc2c(NS(=O)(=O)c3c(OC)cc(C(=O)N4CC(F)C4)cc3OC)noc2cc1Nc1cc(C2CC2)n[nH]1` [Example 262, N-{6-[(3-cyclopropyl-1H-pyrazol-5-yl)amino]-5-methoxy-1,2-benzoxazol-3-yl}-4-(3-fluoroazetidine-1-carbonyl)-2,6-dimethoxybenzene-1-sulfonamide] are 1 nM and 8.1 nM.
